Measured values as given in paper PMC9282638, “A Suite of Activity-Based Probes To Dissect the KLK Activome in Drug-Resistant Prostate Cancer” (Journal of the American Chemical Society, 2021).

Key:
KLK2, KLK3, and KLK14 = assay: Streptavidin blotting of LNCaP-K14 conditioned media after treatment with biotinylated ABPs; type: biochemical, human; conditions: CM of LNCaP-K14 cells, 10 nM DHT and 200 nM Dox; 1 h; concentration-dependent labeling
Method: With ABPs for KLK2, KLK3, and KLK14 in hand, we next addressed selective readouts of KLK activities in a complex biological system. Compounds 20, 31, and 39 were incubated with CM obtained from LNCaP-K14 cells, in which KLK14 expression has been placed under the control of a doxycycline-inducible promoter, stimulated with 10 nM DHT and 200 nM doxycycline (Dox).[15] […] In line with previous reports KLK14 appears as a double band due to protein glycosylation.[15],[39] Selective covalent modification of KLK2, KLK3, and KLK14 by 31, 20, and 39, respectively, was confirmed by streptavidin enrichment and immunoblotting (Figures S19 and S20). In the following experiments, biotinylated ABPs (bABPs) 31, 20, and 39 are named KLK2_bABP, KLK3_bABP, and KLK14_bABP, respectively.
FBS) were seeded onto the bone matrix. As a control the same number of LNCaP cells were seeded in a T175 plate lacking osteoblast cells. After 12 h, the media was aspirated, and the co-culture was incubated with serum-free RPMI media (0 % FBS and phenol red-free) for a further 48 h. After 48 h the media was collected, passed through a 0.2 μm syringe filter and stored at – 80 °C until needed. Indirect Co-culture – After 6 weeks, the media was aspirated, and the differentiated osteoblasts were incubated with serum-free RPMI media (0 % FBS and phenol red-free) for a further 48 h. After 48 h the media was collected, passed through a 0.2 μm syringe filter and then added to a T175 plate of LNCaP cells grown to 80 % confluency and hormone starved for 24 h in RPMI media supplemented with 5 % charcoal stripped FBS. […]
The protein concentration of the homogenate was measured using the DC Protein Assay (BioRad), following the manufacturer’s instructions. […]
Preparation of conditioned media: Samples of conditioned media were removed from – 80 °C storage and concentrated by centrifugation (3000 g, 10 °C) in a 3 KDa molecular weight cut-off spin filter (Amicon) for approximately 3 h. […] The protein concentration of the media was measured using the DC Protein Assay (BioRad), following the manufacturer’s instructions. […]

LNCaP-K14 cells = type: cell-based, human; conditions: for cytotoxicity: 10 μM, 96 h time period; for effect on proliferation (cell confluency): Figure S27
Source text: Prior to the establishment of bone metastases circulating PCa cells must first enter the bone microenvironment by migrating across the sinusoidal wall.[54] We have previously shown that increased KLK14 activity drives PCa cell migration and colonization of mineralized bone matrices.[15] However, the specific contributions of the KLK activome (KLK2, KLK3, and KLK14) toward PCa cell migration are yet to be elucidated. […] We then assessed the migratory capacity of LNCaP-K14 cells using a transwell assay (see Figure S28 for standard curve).
proliferation of LNCaP-K14 cells. Cell confluency was monitored by real-time imaging using
an Incucyte S3 system (Essen Bioscience).
(1 picture or pasted object on this page, not shown here)

CCC(NC(=O)C(CCN)NC(=O)C(Cc1ccc2ccccc2c1)NC(=O)CCCCCNC(=O)CCCCC1SCC2NC(=O)NC21)C(=O)NC(c1ccc(NC(=N)N)cc1)P(=O)(Oc1ccccc1)Oc1ccccc1 (stereo not drawn) [compound 39, 2Nal-Dab-Abu-Arg]
targets labeled (probe selectivity) (KLK2, KLK3, and KLK14): single target
cytotoxicity (LNCaP-K14 cells): no cytotoxicity
effect on proliferation (cell confluency) (LNCaP-K14 cells): no significant effect

CCC[C@H](NC(=O)[C@H](CCC(N)=O)NC(=O)[C@H](CC(N)=O)NC(=O)CCCCCNC(=O)CCCC[C@@H]1SC[C@@H]2NC(=O)N[C@@H]21)C(=O)NC(c1ccc(C(N)=O)cc1)P(=O)(Oc1ccccc1)Oc1ccccc1 (stereo partly drawn) [compound 20]
targets labeled (probe selectivity) (KLK2, KLK3, and KLK14): single target
cytotoxicity (LNCaP-K14 cells): no cytotoxicity
effect on proliferation (cell confluency) (LNCaP-K14 cells): no significant effect

CC(C)(C)C(NC(=O)CCCCCNC(=O)CCCCC1SCC2NC(=O)NC21)C(=O)NC(CCN)C(=O)NC(Cc1ccc(O)cc1)C(=O)NC(c1ccc(NC(=N)N)cc1)P(=O)(Oc1ccccc1)Oc1ccccc1 (stereo not drawn) [compound 31, Tle-Dab-Tyr-Arg]
targets labeled (probe selectivity) (KLK2, KLK3, and KLK14): single target
cytotoxicity (LNCaP-K14 cells): no cytotoxicity
effect on proliferation (cell confluency) (LNCaP-K14 cells): no significant effect
